Measurements reported in ChEMBL document CHEMBL3763130, “Recent advances in the development of dual VEGFR and c-Met small molecule inhibitors as anticancer drugs” (Eur J Med Chem, 2016).

Columns and labels:
[1] = Cytotoxicity against HUVEC assessed as inhibition of VEGF-independent growth after 72 hrs by CellTiter-Glo method; assay type: cell-based; conditions: human, HUVEC cells
[2] = target: T1, Tyrosine-protein kinase receptor UFO (Homo sapiens, UniProt P30530); experiment: Inhibition of Axl (unknown origin)
T1 sequence (P30530 whole entry): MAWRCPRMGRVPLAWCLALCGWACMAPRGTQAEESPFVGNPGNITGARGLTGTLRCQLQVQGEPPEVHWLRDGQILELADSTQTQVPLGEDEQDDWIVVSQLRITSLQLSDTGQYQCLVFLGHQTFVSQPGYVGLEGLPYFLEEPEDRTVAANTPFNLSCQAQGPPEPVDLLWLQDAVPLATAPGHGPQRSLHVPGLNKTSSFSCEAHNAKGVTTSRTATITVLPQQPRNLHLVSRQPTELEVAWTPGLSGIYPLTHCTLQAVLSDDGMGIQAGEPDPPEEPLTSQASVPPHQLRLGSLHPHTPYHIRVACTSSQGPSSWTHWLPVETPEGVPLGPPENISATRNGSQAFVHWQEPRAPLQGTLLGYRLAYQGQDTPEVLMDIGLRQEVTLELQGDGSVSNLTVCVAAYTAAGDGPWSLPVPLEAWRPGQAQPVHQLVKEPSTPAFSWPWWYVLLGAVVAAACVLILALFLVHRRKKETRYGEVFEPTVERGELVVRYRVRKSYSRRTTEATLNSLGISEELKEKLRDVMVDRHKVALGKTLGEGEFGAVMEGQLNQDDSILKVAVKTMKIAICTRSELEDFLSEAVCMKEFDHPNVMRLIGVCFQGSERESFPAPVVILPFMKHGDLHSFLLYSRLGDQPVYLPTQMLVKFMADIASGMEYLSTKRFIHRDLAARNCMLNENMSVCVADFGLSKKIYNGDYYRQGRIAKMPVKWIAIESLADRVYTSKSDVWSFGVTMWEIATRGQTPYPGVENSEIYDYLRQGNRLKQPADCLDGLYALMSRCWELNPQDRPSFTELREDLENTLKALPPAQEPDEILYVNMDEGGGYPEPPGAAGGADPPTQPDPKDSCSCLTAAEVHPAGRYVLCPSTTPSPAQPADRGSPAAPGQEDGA

[3] = target: Macrophage-stimulating protein receptor (Homo sapiens, UniProt Q04912); experiment: Inhibition of Ron (unknown origin)
[4] = target: T2, Receptor-type tyrosine-protein kinase FLT3 (Homo sapiens, UniProt P36888); experiment: Inhibition of Flt-3 (unknown origin)
T2 sequence (P36888 whole entry): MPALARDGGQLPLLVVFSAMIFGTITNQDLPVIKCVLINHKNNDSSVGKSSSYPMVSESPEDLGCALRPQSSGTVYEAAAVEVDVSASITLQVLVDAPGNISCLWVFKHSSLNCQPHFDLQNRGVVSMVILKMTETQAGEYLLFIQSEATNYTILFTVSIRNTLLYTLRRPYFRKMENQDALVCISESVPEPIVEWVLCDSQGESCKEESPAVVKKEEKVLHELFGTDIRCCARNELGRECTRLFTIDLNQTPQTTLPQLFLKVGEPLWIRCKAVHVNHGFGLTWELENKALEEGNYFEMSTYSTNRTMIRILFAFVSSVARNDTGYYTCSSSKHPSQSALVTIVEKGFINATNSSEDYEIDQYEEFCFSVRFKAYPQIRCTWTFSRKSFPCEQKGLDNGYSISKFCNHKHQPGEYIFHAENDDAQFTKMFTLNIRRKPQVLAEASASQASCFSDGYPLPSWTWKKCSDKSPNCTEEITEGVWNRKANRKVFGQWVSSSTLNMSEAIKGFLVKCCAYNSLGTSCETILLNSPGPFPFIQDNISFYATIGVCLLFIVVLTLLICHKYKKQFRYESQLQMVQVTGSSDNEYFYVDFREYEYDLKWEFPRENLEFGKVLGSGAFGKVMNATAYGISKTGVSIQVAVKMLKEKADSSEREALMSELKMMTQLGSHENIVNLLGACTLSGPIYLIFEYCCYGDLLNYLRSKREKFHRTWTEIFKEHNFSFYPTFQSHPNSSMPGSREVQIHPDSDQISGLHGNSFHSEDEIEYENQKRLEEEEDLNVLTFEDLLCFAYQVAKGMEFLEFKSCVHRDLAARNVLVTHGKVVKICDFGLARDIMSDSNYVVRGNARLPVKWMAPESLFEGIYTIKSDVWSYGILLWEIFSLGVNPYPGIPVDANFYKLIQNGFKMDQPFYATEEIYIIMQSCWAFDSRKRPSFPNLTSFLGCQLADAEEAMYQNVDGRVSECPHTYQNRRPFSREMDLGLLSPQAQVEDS

[5] = target: Hepatocyte growth factor receptor (Homo sapiens, UniProt P08581); experiment: Inhibition of c-Met (unknown origin)
[6] = target: Vascular endothelial growth factor receptor 2 (Homo sapiens, UniProt P35968); experiment: Inhibition of VEGFR-2 autophosphorylation in HUVEC after 1 hr by Western blot analysis; assay type: cell-based
[7] = Cytotoxicity against human SNU5 cells assessed as inhibition of tumour growth after 3 days by WST-8 assay; assay type: functional, cell-based; conditions: SNU-5, 72 h
[8] = Cytotoxicity against human Hs 746T cells assessed as inhibition of tumour growth after 3 days by WST-8 assay; assay type: functional, cell-based; conditions: Hs746T, 72 h
[9] = Cytotoxicity against human EBC1 cells assessed as inhibition of tumour growth after 3 days by WST-8 assay; assay type: functional, cell-based; conditions: EBC-1, 72 h
[10] = Cytotoxicity against human MKN45 cells assessed as inhibition of tumour growth after 3 days by WST-8 assay; assay type: functional, cell-based; conditions: MKN-45, 72 h
HUVEC [11] = experiment: Antiangiogenic activity in HUVEC assessed as inhibition of VEGF induced cell proliferation after 3 days by WST-1 assay; assay type: functional, cell-based; conditions: Homo sapiens, 72 h
HUVEC [12] = experiment: Antiangiogenic activity in HUVEC assessed as inhibition of HGF induced cell proliferation after 3 days by WST-1 assay; assay type: functional, cell-based; conditions: Homo sapiens, 72 h
HUVEC [13] = experiment: Antiangiogenic activity in HUVEC assessed as inhibition of bFGF induced cell proliferation after 3 days by WST-1 assay; assay type: functional, cell-based; conditions: Homo sapiens, 72 h
[14] = Antitumor activity against mouse B16F10 cells implanted in naive mouse assessed as reduction in metastatic tumor burden at 30 mg/kg, po qd by Zeiss stereoscopic analysis relative to control; assay type: functional, B16-F10; parameters: scale not given: the % may be the effect or the level left
[15] = Antitumor activity against mouse B16F10 cells implanted in naive mouse assessed as reduction in metastatic tumor burden at 100 mg/kg, po qd by Zeiss stereoscopic analysis relative to control; assay type: functional, B16-F10; parameters: scale not given: the % may be the effect or the level left
[16] = Antitumor activity against mouse B16F10 cells implanted in naive mouse assessed as reduction in lung surface tumor burden at 30 mg/kg, po qd by Zeiss stereoscopic analysis relative to control; assay type: functional, B16-F10; parameters: scale not given: the % may be the effect or the level left
[17] = Antitumor activity against mouse B16F10 cells implanted in naive mouse assessed as reduction in lung surface tumor burden at 100 mg/kg, po qd by Zeiss stereoscopic analysis relative to control; assay type: functional, B16-F10; parameters: scale not given: the % may be the effect or the level left
[18] = Antitumor activity against mouse B16F10 cells implanted in naive mouse assessed as tumour growth inhibition at 30 mg/kg, po qd by Zeiss stereoscopic analysis relative to control; assay type: functional; conditions: B16-F10, po, read-out: TGI
[19] = Antitumor activity against mouse B16F10 cells implanted in naive mouse assessed as tumour growth inhibition at 100 mg/kg, po qd by Zeiss stereoscopic analysis relative to control; assay type: functional; conditions: B16-F10, po, read-out: TGI
[20] = target: Vascular endothelial growth factor receptor 1 (Homo sapiens, UniProt P17948); experiment: Inhibition of VEGFR-1 (unknown origin) by AlphaScreen assay
[21] = target: Vascular endothelial growth factor receptor 3 (Homo sapiens, UniProt P35916); experiment: Inhibition of VEGFR-3 (unknown origin) by AlphaScreen assay

Hepatocyte growth factor receptor, sequence (P08581 whole entry): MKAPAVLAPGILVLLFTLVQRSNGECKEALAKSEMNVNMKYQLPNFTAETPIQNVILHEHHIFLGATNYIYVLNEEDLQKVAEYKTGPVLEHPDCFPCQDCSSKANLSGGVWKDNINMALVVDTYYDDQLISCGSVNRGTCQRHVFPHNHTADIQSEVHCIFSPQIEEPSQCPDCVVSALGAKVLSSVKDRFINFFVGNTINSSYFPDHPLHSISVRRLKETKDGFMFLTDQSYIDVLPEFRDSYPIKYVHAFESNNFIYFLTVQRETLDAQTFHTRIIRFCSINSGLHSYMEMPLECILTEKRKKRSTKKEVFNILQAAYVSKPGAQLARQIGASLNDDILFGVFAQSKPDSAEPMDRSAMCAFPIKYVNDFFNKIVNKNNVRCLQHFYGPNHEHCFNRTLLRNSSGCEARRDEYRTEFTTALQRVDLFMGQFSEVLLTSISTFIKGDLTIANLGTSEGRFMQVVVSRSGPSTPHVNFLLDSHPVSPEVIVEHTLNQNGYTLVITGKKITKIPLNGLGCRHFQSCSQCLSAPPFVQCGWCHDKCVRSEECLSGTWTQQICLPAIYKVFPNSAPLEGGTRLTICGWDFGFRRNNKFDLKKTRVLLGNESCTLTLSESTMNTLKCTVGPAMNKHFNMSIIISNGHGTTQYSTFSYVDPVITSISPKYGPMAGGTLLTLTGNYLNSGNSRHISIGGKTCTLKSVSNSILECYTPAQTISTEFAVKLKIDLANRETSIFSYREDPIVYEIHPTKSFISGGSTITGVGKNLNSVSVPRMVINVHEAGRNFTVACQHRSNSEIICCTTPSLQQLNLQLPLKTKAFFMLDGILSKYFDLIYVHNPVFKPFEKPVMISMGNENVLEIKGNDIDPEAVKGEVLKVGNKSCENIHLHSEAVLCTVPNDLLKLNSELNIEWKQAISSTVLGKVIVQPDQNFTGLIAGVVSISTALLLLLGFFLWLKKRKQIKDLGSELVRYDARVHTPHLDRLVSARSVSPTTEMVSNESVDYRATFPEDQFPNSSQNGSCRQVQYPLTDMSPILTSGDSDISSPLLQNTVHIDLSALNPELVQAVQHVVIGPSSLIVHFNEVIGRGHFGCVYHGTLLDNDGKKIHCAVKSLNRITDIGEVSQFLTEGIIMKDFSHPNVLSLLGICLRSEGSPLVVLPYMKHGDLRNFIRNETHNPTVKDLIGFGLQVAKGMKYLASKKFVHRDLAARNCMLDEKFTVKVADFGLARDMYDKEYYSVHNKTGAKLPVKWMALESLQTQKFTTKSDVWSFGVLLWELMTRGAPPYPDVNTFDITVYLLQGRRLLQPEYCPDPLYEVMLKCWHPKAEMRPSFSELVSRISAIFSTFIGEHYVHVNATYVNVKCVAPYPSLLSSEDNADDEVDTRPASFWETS
Vascular endothelial growth factor receptor 1, sequence (P17948 whole entry): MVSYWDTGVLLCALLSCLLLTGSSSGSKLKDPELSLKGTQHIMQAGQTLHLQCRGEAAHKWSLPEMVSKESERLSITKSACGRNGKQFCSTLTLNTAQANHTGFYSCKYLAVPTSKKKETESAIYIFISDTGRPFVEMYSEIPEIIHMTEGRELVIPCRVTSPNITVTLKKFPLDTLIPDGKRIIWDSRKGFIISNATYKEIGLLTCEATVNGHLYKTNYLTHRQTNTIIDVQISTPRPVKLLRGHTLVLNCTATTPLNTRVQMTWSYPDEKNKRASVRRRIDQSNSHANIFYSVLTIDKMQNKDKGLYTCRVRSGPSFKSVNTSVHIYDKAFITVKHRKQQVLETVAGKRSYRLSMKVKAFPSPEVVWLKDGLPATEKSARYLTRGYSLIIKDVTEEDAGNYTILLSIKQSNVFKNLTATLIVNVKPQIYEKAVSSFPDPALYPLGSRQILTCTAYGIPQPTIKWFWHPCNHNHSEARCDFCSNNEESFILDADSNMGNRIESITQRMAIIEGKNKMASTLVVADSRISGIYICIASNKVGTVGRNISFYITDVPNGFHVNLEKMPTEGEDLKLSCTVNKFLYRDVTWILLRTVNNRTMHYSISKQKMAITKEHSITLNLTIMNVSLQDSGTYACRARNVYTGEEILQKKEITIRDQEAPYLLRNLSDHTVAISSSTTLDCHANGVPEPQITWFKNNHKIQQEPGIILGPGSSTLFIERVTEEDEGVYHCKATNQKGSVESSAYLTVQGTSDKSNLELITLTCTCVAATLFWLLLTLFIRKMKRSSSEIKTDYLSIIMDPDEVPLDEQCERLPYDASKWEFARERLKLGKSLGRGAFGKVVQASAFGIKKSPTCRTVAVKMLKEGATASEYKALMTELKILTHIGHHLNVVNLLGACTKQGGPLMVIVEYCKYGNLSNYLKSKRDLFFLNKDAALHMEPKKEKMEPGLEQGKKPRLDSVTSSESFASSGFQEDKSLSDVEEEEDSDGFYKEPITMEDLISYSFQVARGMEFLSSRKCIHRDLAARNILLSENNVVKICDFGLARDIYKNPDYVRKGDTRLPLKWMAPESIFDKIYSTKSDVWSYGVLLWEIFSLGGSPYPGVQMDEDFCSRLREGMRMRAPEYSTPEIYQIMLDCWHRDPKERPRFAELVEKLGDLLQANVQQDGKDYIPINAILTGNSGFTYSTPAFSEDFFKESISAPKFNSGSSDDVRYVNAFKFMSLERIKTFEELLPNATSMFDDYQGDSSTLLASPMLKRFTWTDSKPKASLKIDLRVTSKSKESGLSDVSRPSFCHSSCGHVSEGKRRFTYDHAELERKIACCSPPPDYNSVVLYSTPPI
Vascular endothelial growth factor receptor 2, sequence (P35968 whole entry): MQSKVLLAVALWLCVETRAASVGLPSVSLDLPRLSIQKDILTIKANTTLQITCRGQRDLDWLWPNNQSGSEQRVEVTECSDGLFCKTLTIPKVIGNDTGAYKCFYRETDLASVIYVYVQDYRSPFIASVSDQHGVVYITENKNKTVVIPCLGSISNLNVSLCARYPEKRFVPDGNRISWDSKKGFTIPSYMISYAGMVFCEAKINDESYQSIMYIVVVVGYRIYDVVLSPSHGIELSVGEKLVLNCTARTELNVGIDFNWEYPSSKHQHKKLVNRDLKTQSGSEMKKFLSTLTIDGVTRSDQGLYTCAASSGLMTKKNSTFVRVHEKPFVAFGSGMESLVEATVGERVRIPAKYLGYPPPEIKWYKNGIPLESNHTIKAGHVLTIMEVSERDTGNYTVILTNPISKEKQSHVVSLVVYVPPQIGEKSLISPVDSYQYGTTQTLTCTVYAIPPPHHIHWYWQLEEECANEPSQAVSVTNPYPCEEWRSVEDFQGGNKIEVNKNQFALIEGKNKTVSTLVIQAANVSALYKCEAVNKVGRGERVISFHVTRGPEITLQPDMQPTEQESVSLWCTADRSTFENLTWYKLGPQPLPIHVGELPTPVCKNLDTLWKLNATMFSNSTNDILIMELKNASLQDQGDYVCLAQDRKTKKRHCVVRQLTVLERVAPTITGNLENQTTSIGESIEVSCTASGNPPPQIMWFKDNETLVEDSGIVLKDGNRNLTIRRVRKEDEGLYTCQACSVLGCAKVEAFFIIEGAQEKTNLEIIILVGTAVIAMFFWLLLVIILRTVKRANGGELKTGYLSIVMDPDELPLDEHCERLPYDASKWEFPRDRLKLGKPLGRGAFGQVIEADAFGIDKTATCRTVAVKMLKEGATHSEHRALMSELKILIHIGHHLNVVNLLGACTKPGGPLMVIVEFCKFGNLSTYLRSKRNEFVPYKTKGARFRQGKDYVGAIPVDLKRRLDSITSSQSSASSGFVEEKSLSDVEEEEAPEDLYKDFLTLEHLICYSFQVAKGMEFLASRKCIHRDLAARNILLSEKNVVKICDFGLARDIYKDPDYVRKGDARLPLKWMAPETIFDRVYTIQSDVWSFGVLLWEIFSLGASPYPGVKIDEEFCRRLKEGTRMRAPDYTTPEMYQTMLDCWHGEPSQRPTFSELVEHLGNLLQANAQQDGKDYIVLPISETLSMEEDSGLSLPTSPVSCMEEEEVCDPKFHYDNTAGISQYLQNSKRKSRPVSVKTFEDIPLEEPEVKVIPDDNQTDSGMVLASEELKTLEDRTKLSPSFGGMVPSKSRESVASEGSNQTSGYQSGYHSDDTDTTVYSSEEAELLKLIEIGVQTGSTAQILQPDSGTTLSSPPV

CNC(=O)c1cc2c(Oc3ccc(NC(=S)NC(=O)Cc4ccccc4)cc3F)ccnc2cc1OC [TAS-115]
GI50 at 72 h [1]: > 10 µM

Nc1nccc(Oc2ccc(NC(=O)c3c[nH]cc(-c4ccc(F)cc4)c3=O)cc2F)c1Cl [BMS-794833]
IC50 [2]: < 0.003 µM | IC50 [3]: < 0.003 µM | IC50 [4]: < 0.003 µM

O=C1NC(=O)[C@@H](c2cn3c4c(cccc24)CCC3)[C@@H]1c1c[nH]c2ccccc12 [TIVANTINIB]
Ki [5]: 0.355 µM

CN(C[C@@H]1COCCO1)S(=O)(=O)Nc1ccc2ccc3ncc(-c4cnn(C)c4)cc3c(=O)c2c1 [MK-2461]
IC50 [5]: 0.0004 µM

CN1CCN(C2CCN(C(=O)Nc3cc(Oc4ccc(NC(=O)C5(C(=O)Nc6ccc(F)cc6)CC5)c(F)c4)ccn3)CC2)CC1 [GOLVATINIB]
IC50 [6]: 0.016 µM | IC50 [7]: 0.024 µM | IC50 [8]: 0.023 µM | IC50 [9]: 0.0062 µM | IC50 [10]: 0.037 µM | IC50 (HUVEC [11]): 0.084 µM | IC50 (HUVEC [12]): 0.017 µM | IC50 (HUVEC [13]): > 1 µM

COc1cc2c(Oc3ccc(NC(=O)C4(C(=O)Nc5ccc(F)cc5)CC4)cc3F)ccnc2cc1OCCCN1CCOCC1 [FORETINIB]
Activity [14]: 31% | Activity [15]: 62% | Activity [16]: 50% | Activity [17]: 58% | inhibition in vivo at 30 mg/kg [18]: 64% | inhibition in vivo at 100 mg/kg [19]: 87%

Cn1cc(-c2ccc3nnc(C(F)(F)c4ccc5ncccc5c4)n3n2)cn1 [JNJ-38877605]
IC50 [5]: 0.004 µM

CC1=[N+](c2ccccc2)C(=O)C(C(=O)Nc2ccc(Oc3ccc4nc(NC(=O)C5CC5)cn4c3)c(F)c2)C=C1 (stereo not drawn)
IC50 [20]: 0.0077 µM | IC50 [21]: 0.0055 µM
